Assay results reported in the supplement of paper PMC10307832.

What was measured:
Test in all cases: relative viability (nuclei count vs DMSO), 5 days (fraction); higher = more cells survive
IMD-0354 + Trametinib = compound: O=C(Nc1cc(C(F)(F)F)cc(C(F)(F)F)c1)c1cc(Cl)ccc1O [IMD-0354] + CC(=O)Nc1cccc(-n2c(=O)n(C3CC3)c(=O)c3c(Nc4ccc(I)cc4F)n(C)c(=O)c(C)c32)c1 [Trametinib] (partner 0.02 µM)
How it was run: (§1)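 Relative viability was taken as the ratio of nuclei in treated wells to nuclei in vehicle wells. Lung cancer cell lines in 1536-well plates received compounds by pin tool one day after seeding, either one drug alone or a fixed anchor-drug dose plus five library-drug doses (not always all listed) in √10 steps. Nuclei were counted on 4× images after 5 days of treatment, and values are medians of duplicate plates.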

CX-5461 + Pemetrexed = compound: Cc1cnc(CNC(=O)c2c(=O)c3ccc(N4CCCN(C)CC4)nc3n3c2sc2ccccc23)cn1 [CX-5461] + Nc1nc2[nH]cc(CCc3ccc(C(=O)N[C@@H](CCC(=O)O)C(=O)O)cc3)c2c(=O)[nH]1 [Pemetrexed] (partner 0.2 µM)
How it was run: as §1

IMD-0354 + Foretinib = compound: O=C(Nc1cc(C(F)(F)F)cc(C(F)(F)F)c1)c1cc(Cl)ccc1O [IMD-0354] + COc1cc2c(Oc3ccc(NC(=O)C4(C(=O)Nc5ccc(F)cc5)CC4)cc3F)ccnc2cc1OCCCN1CCOCC1 [Foretinib] (partner 0.25 µM)
How it was run: as §1

IMD-0354 + Pemetrexed = compound: O=C(Nc1cc(C(F)(F)F)cc(C(F)(F)F)c1)c1cc(Cl)ccc1O [IMD-0354] + Nc1nc2[nH]cc(CCc3ccc(C(=O)N[C@@H](CCC(=O)O)C(=O)O)cc3)c2c(=O)[nH]1 [Pemetrexed] (partner 0.2 µM)
How it was run: as §1

Cell Line | relative viability (IMD-0354 + Trametinib; first compound 0.04 µM) | relative viability (IMD-0354 + Trametinib; first compound 0.1265 µM) | relative viability (IMD-0354 + Trametinib; first compound 0.4 µM) | relative viability (IMD-0354 + Trametinib; first compound 1.265 µM) | relative viability (IMD-0354 + Trametinib; first compound 4 µM) | relative viability (CX-5461 + Pemetrexed; first compound 0.01 µM) | relative viability (CX-5461 + Pemetrexed; first compound 0.03162 µM) | relative viability (CX-5461 + Pemetrexed; first compound 0.1 µM) | relative viability (CX-5461 + Pemetrexed; first compound 0.3162 µM) | relative viability (CX-5461 + Pemetrexed; first compound 1 µM) | relative viability (IMD-0354 + Foretinib; first compound 0.04 µM) | relative viability (IMD-0354 + Foretinib; first compound 0.1265 µM) | relative viability (IMD-0354 + Foretinib; first compound 0.4 µM) | relative viability (IMD-0354 + Foretinib; first compound 1.265 µM) | relative viability (IMD-0354 + Foretinib; first compound 4 µM) | relative viability (IMD-0354 + Pemetrexed; first compound 0.04 µM) | relative viability (IMD-0354 + Pemetrexed; first compound 0.1265 µM) | relative viability (IMD-0354 + Pemetrexed; first compound 0.4 µM) | relative viability (IMD-0354 + Pemetrexed; first compound 1.265 µM) | relative viability (IMD-0354 + Pemetrexed; first compound 4 µM)
RERF-LC-KJ | 1.02 | 0.931 | 0.663 | 0.557 | 0.174 | 0.508 | 0.465 | 0.442 | 0.403 | 0.434 | 0.934 | 0.93 | 0.568 | 0.471 | 0.214 | 0.536 | 0.462 | 0.376 | 0.126 | 0.153
NCI-H1650 | 0.568 | 0.558 | 0.479 | 0.131 | 0.254 | 0.377 | 0.477 | 0.336 | 0.35 | 0.241 | 1.32 | 1.1 | 0.581 | 0.207 | 0.245 | 0.364 | 0.352 | 0.309 | 0.259 | 0.12
BEN | 1.07 | 0.853 | 0.814 | 0.472 | 0.401 | 0.75 | 0.742 | 0.711 | 0.759 | 0.556 | 0.739 | 0.731 | 0.448 | 0.193 | 0.196 | 0.815 | 0.758 | 0.506 | 0.373 | 0.322
EMC-BAC-2 | 0.918 | 0.933 | 0.584 | – | 0.3 | 0.435 | 0.439 | 0.395 | 0.443 | 0.399 | 1.08 | 1 | 0.594 | 0.513 | 0.302 | 0.398 | 0.399 | 0.338 | 0.319 | 0.306
LU99A | 0.434 | 0.475 | 0.442 | 0.505 | 0.206 | 0.197 | 0.175 | 0.159 | 0.188 | 0.179 | 0.655 | 0.806 | 0.612 | 0.682 | 0.273 | 0.194 | 0.201 | 0.143 | 0.188 | 0.149
ABC-1 | – | – | – | – | – | – | – | – | – | – | 0.876 | 1.12 | 0.854 | 0.37 | 0.29 | – | – | – | – | –
NCI-H358 | 0.116 | 0.128 | 0.14 | 0.134 | 0.102 | 0.159 | 0.157 | 0.165 | 0.173 | 0.156 | 0.753 | 0.828 | 0.372 | 0.163 | 0.126 | 0.174 | 0.172 | 0.175 | 0.138 | 0.126
NCI-H1299 | – | – | – | – | – | – | – | – | – | – | 1.03 | 1.06 | 0.787 | 0.267 | 0.179 | – | – | – | – | –
EBC-1 | – | – | – | – | – | – | – | – | – | – | 0.0859 | 0.103 | 0.104 | 0.105 | 0.0891 | – | – | – | – | –
NCI-H2347 | 0.279 | 0.296 | 0.227 | 0.27 | 0.207 | 0.396 | 0.42 | 0.431 | 0.411 | 0.41 | 1.11 | 0.842 | 0.523 | 0.599 | 0.513 | 0.387 | 0.435 | 0.373 | 0.365 | 0.27
NCI-H1993 | 0.53 | 0.353 | 0.557 | 0.507 | 0.401 | 0.529 | 0.67 | 0.582 | 0.587 | 0.625 | 0.768 | 0.869 | 0.699 | 0.477 | 0.559 | 0.578 | 0.565 | 0.518 | 0.344 | 0.412
NCI-H322M | 0.567 | 0.622 | 0.483 | 0.388 | 0.426 | 0.568 | 0.558 | 0.708 | 0.567 | 0.62 | 1.12 | 0.907 | 0.716 | 0.31 | 0.402 | 0.673 | 0.65 | 0.543 | 0.332 | 0.422
NCI-H838 | 0.518 | 0.466 | 0.236 | 0.204 | 0.166 | 0.251 | 0.248 | 0.244 | 0.232 | 0.241 | 1.08 | 0.925 | 0.463 | 0.579 | 0.403 | 0.25 | 0.229 | 0.161 | 0.191 | 0.167
HARA | 0.772 | 0.517 | 0.632 | 0.225 | 0.262 | 0.204 | 0.272 | 0.27 | 0.208 | 0.253 | 1.07 | 0.866 | 0.568 | 0.159 | 0.125 | 0.318 | 0.271 | 0.207 | 0.202 | 0.151
NCI-H1792 | 0.496 | 0.564 | 0.221 | 0.292 | 0.135 | 0.897 | 0.929 | 0.964 | 1.02 | 0.296 | – | – | – | – | – | 1.01 | 0.57 | 0.493 | 0.163 | 0.152
HCC-44 | 1.09 | 1.14 | 0.973 | 1.04 | 0.319 | 0.56 | 0.694 | 0.644 | 0.649 | 0.55 | – | – | – | – | – | 0.733 | 0.692 | 0.595 | 0.354 | 0.344
A549 | – | – | – | – | – | – | – | – | – | – | 0.986 | 1.02 | 0.481 | 0.0713 | 0.0502 | – | – | – | – | –
NCI-H1563 | – | – | – | – | – | 0.81 | 0.747 | 0.908 | 0.687 | 0.651 | 1.06 | 0.936 | 0.837 | 0.388 | 0.44 | 0.815 | 0.9 | 0.669 | 0.5 | 0.231
IA-LM | – | – | – | – | – | – | – | – | – | – | 1.17 | 1.17 | 0.384 | 0.42 | 0.0844 | – | – | – | – | –
NCI-H1703 | – | – | – | – | – | – | – | – | – | – | 0.407 | 0.347 | 0.368 | 0.299 | 0.16 | – | – | – | – | –
NCI-H727 | 0.38 | 0.323 | 0.365 | 0.351 | 0.394 | – | – | – | – | – | 0.94 | 0.869 | 0.659 | 0.711 | 0.477 | – | – | – | – | –
NCI-H1648 | 0.435 | 0.504 | 0.369 | 0.545 | 0.271 | 0.631 | 0.847 | 0.686 | 0.832 | 0.494 | – | – | – | – | – | 0.653 | 0.693 | 0.401 | 0.455 | 0.277
